# Experimental data published in ChEMBL document CHEMBL1147114, “Fluoroquinolone resistance in Haemophilus influenzae is associated with hypermutability” (2007).
# Experiments:
# Assay type in all cases: functional
# [1] = test system: Haemophilus influenzae; assay: Antimicrobial susceptibility against Haemophilus influenzae B isolate with AcrR Leu31His mutation
# [2] = test system: Haemophilus influenzae; assay: Antimicrobial susceptibility against Haemophilus influenzae B1 isolate with GyrA Asp88Tyr and AcrR Leu31His mutation
# [3] = test system: Haemophilus influenzae; assay: Antimicrobial susceptibility against Haemophilus influenzae B2 isolate with GyrA Asp88Tyr and AcrR Leu31His mutation
# [4] = test system: Haemophilus influenzae; assay: Antimicrobial susceptibility against Haemophilus influenzae C isolate with AcrR Leu31His and Arg34Glu mutation
# [5] = test system: Haemophilus influenzae; assay: Antimicrobial susceptibility against Haemophilus influenzae C1 isolate with GyrA Asp88Asn, AcrR Leu31His and Arg34Glu mutation
# [6] = test system: Haemophilus influenzae; assay: Antimicrobial susceptibility against Haemophilus influenzae C2 isolate with GyrA Asp88Asn, AcrR Leu31His and Arg34Glu mutation
# [7] = test system: Haemophilus influenzae; assay: Antimicrobial susceptibility against Haemophilus influenzae C3 isolate with GyrA Asp88Asn, ParC Ser84Ile, AcrR Leu31His and Arg34Glu mutation
# [8] = test system: Haemophilus influenzae; assay: Antimicrobial susceptibility against Haemophilus influenzae D isolate with AcrR Leu31His, Ile121Val and Gln134Lys mutation
# [9] = test system: Haemophilus influenzae; assay: Antimicrobial susceptibility against Haemophilus influenzae D1 isolate with GyrA Ser84Tyr, ParC Glu88Lys and AcrR Leu31His, Ile121Val and Gln134Lys mutation
# [10] = test system: Haemophilus influenzae; assay: Antimicrobial susceptibility against Haemophilus influenzae D2 isolate with GyrA Ser84Tyr, ParC Glu88Lys and AcrR Leu31His, Ile121Val and Gln134Lys mutation
# [11] = test system: Haemophilus influenzae; assay: Antimicrobial susceptibility against Haemophilus influenzae D3 isolate with GyrA Ser84Tyr, ParC Glu88Lys and AcrR Leu31His, Ile121Val and Gln134Lys mutation
# [12] = test system: Haemophilus influenzae; assay: Antimicrobial susceptibility against Haemophilus influenzae D4 isolate with GyrA Ser84Tyr, ParC Glu88Lys and AcrR Leu31His, Ile121Val and Gln134Lys mutation
# [13] = test system: Haemophilus influenzae; assay: Antimicrobial susceptibility against Haemophilus influenzae A isolate with GyrA Glu83Cys and AcrR 97stop codon mutation
# [14] = test system: Haemophilus influenzae; assay: Antimicrobial susceptibility against Haemophilus influenzae A1 isolate with GyrA Glu83Cys, ParC Ser84Arg and AcrR 97stop codon mutation
# [15] = test system: Haemophilus influenzae; assay: Antimicrobial susceptibility against Haemophilus influenzae A2 with GyrA Glu83Cys, ParC Ser84Arg and AcrR 97stop codon mutation
# [16] = test system: Haemophilus influenzae; assay: Antimicrobial susceptibility against Haemophilus influenzae A3 isolate with GyrA Glu83Cys, ParC Ser84Arg and AcrR 97stop codon mutation
# [17] = test system: Haemophilus influenzae; assay: Antimicrobial susceptibility against Haemophilus influenzae A4 isolate with GyrA Glu83Cys, ParC Ser84Arg and AcrR 97stop codon mutation
SMILES,MIC [1] [µg/mL],MIC [2] [µg/mL],MIC [3] [µg/mL],MIC [4] [µg/mL],MIC [5] [µg/mL],MIC [6] [µg/mL],MIC [7] [µg/mL],MIC [8] [µg/mL],MIC [9] [µg/mL],MIC [10] [µg/mL],MIC [11] [µg/mL],MIC [12] [µg/mL],MIC [13] [µg/mL],MIC [14] [µg/mL],MIC [15] [µg/mL],MIC [16] [µg/mL],MIC [17] [µg/mL]
O=C(O)c1cn(C2CC2)c2cc(N3CCNCC3)c(F)cc2c1=O [CIPROFLOXACIN],0.03,0.12,0.25,0.01,0.12,2,8,0.01,1,4,8,16,0.01,0.25,0.25,2,4
C[C@H]1COc2c(N3CCN(C)CC3)c(F)cc3c(=O)c(C(=O)O)cn1c23.C[C@H]1COc2c(N3CCN(C)CC3)c(F)cc3c(=O)c(C(=O)O)cn1c23.O [LEVOFLOXACIN],0.03,0.25,0.25,0.03,0.12,2,8,0.03,0.5,2,4,4,0.03,0.25,0.5,0.5,4
COc1c(N2C[C@@H]3CCCN[C@@H]3C2)c(F)cc2c(=O)c(C(=O)O)cn(C3CC3)c12 [MOXIFLOXACIN],0.06,0.25,0.25,0.03,0.12,4,4,0.03,0.5,2,2,2,0.03,0.5,0.5,0.5,2
CCn1cc(C(=O)O)c(=O)c2ccc(C)nc21 [NALIDIXIC ACID],0.5,32,64,0.5,16,128,128,0.5,64,64,128,128,0.5,1,64,64,128
